These results are taken from patent US20260174742A1, “INHIBITORS OF CYCLIC ADP RIBOSE HYDROLASE AND METHODS OF USE THEREOF” (Flagship Pioneering Innovations VI, LLC, priority 2022, published 2026).

Molecules are shown by their SMILES.

The IC50 is the concentration needed to halve the response being measured.

The test has as its target T1, Human recombinant CD38 (Homo sapiens, UniProt P28907).
T1 construct: purchased BPS Bioscience
T1 sequence (P28907 1-300): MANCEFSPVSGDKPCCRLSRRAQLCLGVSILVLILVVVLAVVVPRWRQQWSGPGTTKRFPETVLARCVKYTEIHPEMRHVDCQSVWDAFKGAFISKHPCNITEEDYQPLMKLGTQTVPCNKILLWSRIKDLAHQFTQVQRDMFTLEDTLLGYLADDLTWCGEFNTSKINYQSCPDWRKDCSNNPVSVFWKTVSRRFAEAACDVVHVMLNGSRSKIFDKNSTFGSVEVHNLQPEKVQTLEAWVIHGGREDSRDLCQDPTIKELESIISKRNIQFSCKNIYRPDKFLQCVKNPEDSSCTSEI
Put plainly: CD38 hydrolase inhibition assay (ε-NAD substrate, fluorescence). It is filed as biochemical. To be noted: 0.2 ng/μL CD38, 100 μM ε-NAD, 15 m at room temperature, excitation 300 nm, emission 410 nm. On the procedure: Example 9: CD38 Hydrolase Inhibition Assay
The CD38 hydrolase inhibition assay measures the glycohydrolase activity of CD38, using an NAD analog as substrate and measuring formation of a fluorescent ADP ribose analog. A 4× buffer was prepared with 1M sucrose and 160 mM Tris-HCl at pH 7.4, for a final assay concentration of 250 mM sucrose and 40 mM Tris-HCl. The 4× solution was kept at 4° C. and warmed to room temperature before use. Tween20 was added to 1× buffer for a final concentration of 0.05%. Human recombinant CD38 (BPS Bioscience) was diluted to 0.4 ng/μL in 1× buffer and 12.5 μL added to each plate well. Inhibitors were added and DMSO content was normalized to the highest concentration on the plate, with an upper limit of 0.5%. Finally, ε-NAD was diluted to 200 μM in 1× buffer and 12.5 μL added to each plate well, for final well concentrations of 0.2 ng/μL CD38 and 100 μM ε-NAD. Plates were covered and incubated at room temperature for 15 m, and then read on a plate reader using excitation 300 nm and emission 410 nm. […] IC50s for test compounds were determined either using GraphPad Prism software v9.3, or CDD Vault.

`CO[C@H]1CC[C@H](NC(=O)c2cc(C)cc(-n3ccnc3)c2)CC1` [Compound 101, 3-(imidazol-1-yl)-5-methyl-N-[(trans)-4-methoxycyclohexyl]benzamide]: the IC50 was in the range of 100 to 1000 nM.

For the compound `CO[C@H]1CC[C@H](NC(=O)c2cc(-c3cnn(C)c3)cc(-n3ccnc3)c2)CC1` [Compound 102, 3-(imidazol-1-yl)-5-(1-methylpyrazol-4-yl)-N-[(trans)-4-methoxycyclohexyl]benzamide], the IC50 is < 100 nM.

Turning to `CO[C@H]1CC[C@H](NC(=O)c2cc(N3CC[C@H](O)C3)cc(-n3ccnc3)c2)CC1` [Compound 104, 3-[(3S)-3-hydroxypyrrolidin-1-yl]-5-(imidazol-1-yl)-N-[(trans)-4-methoxycyclohexyl]benzamide], the IC50 fell in the range of 100 to 1000 nM.

For `CO[C@H]1CC[C@H](NC(=O)c2cc(-c3cncs3)cc(N3CCC[C@@H]3CO)c2)CC1` [Compound 105, 3-[(2R)-2-(hydroxymethyl)pyrrolidin-1-yl]-N-[(trans)-4-methoxycyclohexyl]-5-(1,3-thiazol-5-yl)benzamide], the IC50 lay within 100 to 1000 nM.

For the compound `COCCO[C@H]1CC[C@H](NC(=O)c2cc(-c3cnn(C)c3)cc(-c3cncs3)c2)CC1` [Compound 107, 3-(1-methylpyrazol-4-yl)-N-[(trans)-4-(2-methoxyethoxy)cyclohexyl]-5-(1,3-thiazol-5-yl)benzamide], the IC50 was < 100 nM.

With `CO[C@H]1CC[C@H](NS(=O)(=O)c2cc(C)cc(-n3ccnc3)c2)CC1` [Compound 108, 3-(imidazol-1-yl)-5-methyl-N-[(trans)-4-methoxycyclohexyl]benzene sulfonamide], the IC50 is > 1000 nM.
